Tests used:
MCF-7 cell line = assay: MTT cell viability assay, MCF-7; type: cell-based
Protocol: MCF-7 cells were purchased from Procell Life Science and Technology Co., Ltd., Wuhan, China, and cultured in MEM or Leibovitz’s L-15 medium containing 2% FBS. MCF-7 cells were maintained in a 5% CO2-humidified atmosphere at 37 °C. KCL22, LAMA84, and K562 cells were obtained from the American Type Culture Collection (Manassas, VA, USA). The KBM5 cell line was previously provided by Dr. Bharat Aggarwal (University of Texas M.D. Anderson Cancer Center, Houston, TX, USA). KBM5 cells were cultured in IMDM medium with 10% inactivated FBS and 1% penicillin-streptomycin. KCL22, LAMA84, and K562 cells were cultured in RPMI with 10% FBS and 1% penicillin-streptomycin antibiotics and maintained at 37 °C in a 5% CO2 chamber.
(§1) Cells (1 × 10^4 cells/well) were seeded on a 96-well plate and treated with 4c (0, 5, 10, 15, 30, 50 µM) for 24 h. After 24 h of treatment, 30 µL of MTT solution (2 mg/mL) for 2 h, followed by MTT lysis overnight. Cell viability was analyzed by measuring the absorbance of lysed MTT crystals using VARIOSKAN LUX (Thermo Fisher Scientific Inc., Waltham, MA, USA) at 570 nm.

[1] = DFT frontier molecular orbital calculations
Protocol: Computational DFT studies for the molecules were performed using Gaussian09 [35]. The molecule was built and visualized by the Gaussview 5 program package. The molecular geometry of the molecules was optimized at the B3LYP level with a 6-311++G (d,p) basis set.
FMO analysis of compound 4c was performed using the B3LYP method with a 6-311 (2d, p) basis set. The HOMO of a molecule represents the site where the electron density is highest and is involved in electron donation, whereas the LUMO represents the site where the electron density is lowest and is involved in electron acceptance. The ELUMO-EHOMO energy gap is directly related to the molecule’s chemical reactivity and kinetic stability. The molecule has a smaller energy gap, which is attributed to less stability and more reactivity. In contrast, the molecule has a large energy gap, attributed to being less chemically reactive and having high chemical stability with greater hardness. […] It is observed that the HOMO-LUMO energy gap of 4l decreased by 1.24 eV and 1.04 eV in alpha and beta orbitals, respectively, when compared with the 4c molecule. […] In contrast, LUMO orbitals were localized on dichlorophenyl, triazole groups, and sulphur atoms of the lead molecule 4c. The chemical potential values for 4c and 4i were estimated to be −4.23 eV and −3.91 eV, respectively, and reflects their significant electron-accepting capacity. […]

MCF-10A cells = assay: Cytotoxicity assay, MCF-10A; type: cell-based; conditions: normal mammary epithelial cells
Protocol: as §1

[2] = Homo sapiens, MCF7, viability of MCF-7 cell line

Row | Compound | IC50 (MCF-7 cell line; [2]) [µM] | melting point [°C] | other results
1 | COc1ccc(Cc2nnc(SCc3cn(-c4ccc(O)cc4)nn3)o2)cc1 [Compound 4g, 4-(4-(((5-(4-Methoxybenzyl)-1,3,4-oxadiazol-2-yl)thio)methyl)-1H-1,2,3-triazol-1-yl)phenol] | 29.7 ± 1.47 | 94 to 96 | –
2 | COc1cccc2c1C(=O)c1c(O)c3c(c(O)c1C2=O)C[C@@](O)(C(=O)CO)C[C@@H]3O[C@H]1C[C@H](N)[C@H](O)[C@H](C)O1 [Doxorubicin, reference compound] | 0.91 ± 0.04 | – | –
3 | COc1ccc(Cc2nnc(SCc3cn(-c4ccccc4)nn3)o2)cc1 [Compound 4d, 2-(4-Methoxybenzyl)-5-(((1-phenyl-1H-1,2,3-triazol-4-yl)methyl)thio)-1,3,4-oxadiazole] | 25.8 ± 1.41 | 60 to 62 | –
4 | COc1ccc(Cc2nnc(SCc3cn(-c4ccccc4)nn3)o2)cc1OC [Compound 4m, 2-(3,4-Dimethoxybenzyl)-5-(((1-phenyl-1H-1,2,3-triazol-4-yl)methyl)thio)-1,3,4-oxadiazole] | 28.3 ± 1.45 | 46 to 48 | –
5 | COc1ccc(Cc2nnc(SCc3cn(-c4ccc(C)cc4)nn3)o2)cc1 [Compound 4i, 2-(4-Methoxybenzyl)-5-(((1-(p-tolyl)-1H-1,2,3-triazol-4-yl)methyl)thio)-1,3,4-oxadiazole] | 45.4 ± 1.66 | 104 to 106 | –
6 | COc1ccc(Cc2nnc(SCc3cn(-c4ccc(Br)cc4)nn3)o2)cc1OC [Compound 4k, 2-(((1-(4-Bromophenyl)-1H-1,2,3-triazol-4-yl)methyl)thio)-5-(3,4-dimethoxybenzyl)-1,3,4-oxadiazole] | 31.9 ± 1.5 | 98 to 100 | –
7 | COc1ccc(Cc2nnc(SCc3cn(-c4ccccc4C)nn3)o2)cc1OC [Compound 4r, 2-(3,4-Dimethoxybenzyl)-5-(((1-(o-tolyl)-1H-1,2,3-triazol-4-yl)methyl)thio)-1,3,4-oxadia-zole] | – | – | IC50 (MCF-7 cell line; viability of MCF-7 cell line): 35.7 ± 1.55 µM
8 | COc1ccc(-n2cc(CSc3nnc(Cc4ccc(OC)c(OC)c4)o3)nn2)cc1 [Compound 4o, 2-(3,4-Dimethoxybenzyl)-5-(((1-(4-methoxyphenyl)-1H-1,2,3-triazol-4-yl)methyl)thio)-1,3,4-oxadiazole] | 35.8 ± 1.55 | 76 to 78 | –
9 | COc1ccc(Cc2nnc(SCc3cn(-c4ccc(Cl)c(Cl)c4)nn3)o2)cc1OC [Compound 4l, 2-(((1-(3,4-Dichlorophenyl)-1H-1,2,3-triazol-4-yl)methyl)thio)-5-(3,4-dimethoxybenzyl)-1,3,4-oxadiazole] | 23.8 ± 1.38 | 102 to 104 | decrease of HOMO-LUMO energy gap compared with the 4c molecule ([1]; alpha orbitals): 1.24 eV; decrease of HOMO-LUMO energy gap compared with the 4c molecule ([1]; beta orbitals): 1.04 eV
10 | COc1ccc(Cc2nnc(SCc3cn(-c4ccc(Cl)cc4)nn3)o2)cc1 [Compound 4a, 2-(((1-(4-Chlorophenyl)-1H-1,2,3-triazol-4-yl)methyl)thio)-5-(4-methoxybenzyl)-1,3,4-oxadiazole] | 9.58 ± 0.98 | 92 to 94 | IC50 (MCF-10A cells; Homo sapiens, MCF-10A): > 100 µM
11 | COc1ccc(Cc2nnc(SCc3cn(-c4ccc(Cl)cc4)nn3)o2)cc1OC [Compound 4j, 2-(((1-(4-Chlorophenyl)-1H-1,2,3-triazol-4-yl)methyl)thio)-5-(3,4-dimethoxybenzyl)-1,3,4-oxadiazole] | 40.5 ± 1.61 | 72 to 74 | –
12 | COc1ccc(Cc2nnc(SCc3cn(-c4ccc(C)cc4)nn3)o2)cc1OC [Compound 4q, 2-(3,4-Dimethoxybenzyl)-5-(((1-(p-tolyl)-1H-1,2,3-triazol-4-yl)methyl)thio)-1,3,4-oxadia-zole] | – | – | IC50 (MCF-7 cell line; viability of MCF-7 cell line): 19.7 ± 1.3 µM; IC50 (MCF-10A cells): > 100 µM
13 | COc1ccc(Cc2nnc(SCc3cn(-c4ccc(Br)cc4)nn3)o2)cc1 [Compound 4b, 2-(((1-(4-Bromophenyl)-1H-1,2,3-triazol-4-yl)methyl)thio)-5-(4-methoxybenzyl)-1,3,4-oxadia-zole] | – | – | IC50 (MCF-7 cell line; viability of MCF-7 cell line): 8.44 ± 0.93 µM; IC50 (MCF-10A cells): > 100 µM
14 | COc1ccc(Cc2nnc(SCc3cn(-c4ccc(OC)cc4)nn3)o2)cc1 [Compound 4f, 2-(4-Methoxybenzyl)-5-(((1-(4-methoxyphenyl)-1H-1,2,3-triazol-4-yl)methyl)thio)-1,3,4-oxadiazole] | 34.5 ± 1.54 | 90 to 92 | –
15 | COc1ccc(Cc2nnc(SCc3cn(-c4ccccc4C)nn3)o2)cc1 [Compound 4h, 2-(4-Methoxybenzyl)-5-(((1-(o-tolyl)-1H-1,2,3-triazol-4-yl)methyl)thio)-1,3,4-oxadiazole] | 26.2 ± 1.42 | – | –
16 | COc1ccc(Cc2nnc(SCc3cn(-c4ccccc4O)nn3)o2)cc1OC [Compound 4p, 2-(4-(((5-(3,4-Dimethoxybenzyl)-1,3,4-oxadiazol-2-yl)thio)methyl)-1H-1,2,3-triazol-1-yl)phenol] | 65 ± 1.81 | 122 to 124 | –
17 | COc1ccc(Cc2nnc(SCc3cn(-c4cccc(Cl)c4)nn3)o2)cc1OC [Compound 4n, 2-(((1-(3-Chlorophenyl)-1H-1,2,3-triazol-4-yl)methyl)thio)-5-(3,4-dimethoxybenzyl)-1,3,4-oxadiazole] | 23.2 ± 1.37 | 70 to 72 | –
18 | COc1ccc(Cc2nnc(SCc3cn(-c4cccc(Cl)c4)nn3)o2)cc1 [Compound 4e, 2-(((1-(3-Chlorophenyl)-1H-1,2,3-triazol-4-yl)methyl)thio)-5-(4-methoxybenzyl)-1,3,4-oxadiazole] | 9 to 16 | 94 to 96 | IC50 (MCF-7 cell line; viability of MCF-7 cell line): 16.9 ± 1.23 µM; IC50 (MCF-10A cells; Homo sapiens, MCF-10A): > 100 µM

Reference: publication PMC10296415, “Methyl-Thiol-Bridged Oxadiazole and Triazole Heterocycles as Inhibitors of NF-κB in Chronic Myelogenous Leukemia Cells” (Biomedicines, 2023)
